Source: patent US20150283127A1, “SAQUINAVIR-NO FOR IMMUNOMODULATION” (ONCONOX APS, priority 2012, published 2015)

Key:
spleen cells = conditions: ex vivo, cited from earlier work
[1] = tested on: peripheral blood mononuclear cells; conditions: concentrations between 5 and 20 mM; cited from earlier work
murine CD4+ cells = experiment: Viability of murine CD4+ cells; format: cell-based, mouse; conditions: 24 hours; effect less than on cytokine generation
Protocol: In order to assess the viability of SPC, LNC, DLNC and SCC by mitochondrial activity assay we used the mitochondrial-dependent reduction of 3-(4,5-dimethylthiazol-2-yl)-[…] (MTT) to formazan. At the end of appropriate treatments, SPC and LNC were collected in tubes, spun down, supernatants removed and the cell pellets dissolved in […] MTT (Sigma-Aldrich) solution. Incubation with MTT lasted for 30 minutes at 37° C. and cells were centrifuged once more. DMSO was added to the pellets to dissolve the formazan crystals. The absorbances in MTT assay were measured at […], with a correction at 690 nm, using an automated microplate reader (LKB 5060-006, LKB, Vienna, Austria).
CD4+ cells were purified from C57BL/6 SPC and stimulated with anti-CD3 and anti-CD28 antibodies in the presence of various concentrations of Saq-NO for 24 hours. The influence of Saq-NO on cytokine generation was compared to its influence on CD4+ cell viability and to the influence of Saq on the same parameters. […] Thus, Saq-NO directly affects T cell cytokine production.

rat LNC [2] = experiment: Viability of rat LNC (MTT mitochondrial activity assay); format: cell-based; conditions: ConA, 24 hours, difference not statistically significant
Source text: Experimental animals (C57BL/6 mice, BALB/c mice and Dark Agouti rats) were obtained from the Animal House Facility of the Institute for Biological Research “Sinisa Stanković”, Belgrade, Serbia. Spleen cells (SPC) were isolated from murine spleens and lymph node cells (LNC) were obtained from rat cervical lymph nodes of untreated animals. Draining lymph node cells (DLNC) were obtained from popliteal lymph nodes 8-10 days after immunization of rats with myelin basic protein (guinea pig MBP, kind gift from professor Alexander Fluegel, University of Goettingen, Germany) and complete Freund's adjuvant (CFA, Difco, Detroit, Mich.). The organs were mechanically disrupted, passed through 40-μm nylon mesh filter and the resulting suspension was collected by centrifugation. Red blood cells from single cell suspensions obtained from spleens were lysed using RBC Lysis Buffer (eBioscience, San Diego, Calif.). […] Obtained purity of CD4 population was more than 97% as determined by flow cytometry. […]
In order to assess the viability of SPC, LNC, DLNC and SCC by mitochondrial activity assay we used the mitochondrial-dependent reduction of 3-(4,5-dimethylthiazol-2-yl)-2,5-[…] bromide (MTT) to formazan. […] The absorbances in MTT assay were measured at […], with a correction at 690 nm, using an automated microplate reader (LKB 5060-006, LKB, Vienna, Austria).

rat LNC [3] = experiment: Cytokine generation (ELISA) in ConA-stimulated rat LNC; format: cell-based; conditions: 24 hours, vs untreated control cells
Source text: Experimental animals (C57BL/6 mice, BALB/c mice and Dark Agouti rats) were obtained from the Animal House Facility of the Institute for Biological Research “Sinisa Stanković”, Belgrade, Serbia. Spleen cells (SPC) were isolated from murine spleens and lymph node cells (LNC) were obtained from rat cervical lymph nodes of untreated animals. Draining lymph node cells (DLNC) were obtained from popliteal lymph nodes 8-10 days after immunization of rats with myelin basic protein (guinea pig MBP, kind gift from professor Alexander Fluegel, University of Goettingen, Germany) and complete Freund's adjuvant (CFA, Difco, Detroit, Mich.). […] Obtained purity of CD4 population was more than 97% as determined by flow cytometry. […]
Cytokine concentration in cell culture supernatants was determined by sandwich ELISA using MaxiSorp plates (Nunc, Rochild, Denmark) and anti-cytokine paired antibodies according to the manufacturer's instructions. Samples were analyzed in duplicate for murine/rat IL-17, murine IL-10, murine TNF, murine IL-4 (eBioscience), murine IFN-γ, rat IFN-γ, rat IL-4 (R&D, Minneapolis, Minn.), rat IL-10 and rat TNF (BD Biosciences). The results were calculated using standard curves made on the basis of known concentrations of the appropriate recombinant cytokines. […]

Structure (SMILES): CC(C)(C)NC(=O)[C@@H]1C[C@@H]2CCCC[C@@H]2CN1C[C@@H](O)[C@H](Cc1ccccc1)NC(=O)[C@H](CC(N)=O)NC(=O)c1ccc2ccccc2n1 [Saq, (2S)—N-[(2S,3R)-4-[(3S)-3-(tert-butylcarbamoyl)-decahydroisoquinolin-2-iy]-3-hydroxy-1-phenylbutan-2-il]-2-(quinolin-2-ylformamido)butanediamide, reference compound]
- IL-1 beta, IL-10 and TNF-alpha production (spleen cells; in vivo exposure): not modified
- IFN-gamma and IL-2 secretion by spleen cells vs control mice (spleen cells; mice previously treated): secreted more
- PHA or anti-CD3-induced proliferation [1]: inhibited

Structure (SMILES): CC(C)(C)NC(=O)C1C[C@@H]2CCCC[C@@H]2CN1CC(O[N+](=O)[O-])[C@H](Cc1ccccc1)NC(=O)C(CC(N)=O)NC(=O)c1ccc2ccccc2n1 (stereo partly drawn) [Saq-NO, nitric ester of Saquinavir]
- CD4+ cell viability (murine CD4+ cells): statistically significantly inhibited
- LNC viability (rat LNC [2]): affected only with the highest dose
- Release of the examined cytokines IFN-g, IL-17, IL-10 and TNF (rat LNC [3]): dose-dependently inhibited
